According to paper PMC8428848, “Ancient role of sulfakinin/cholecystokinin-type signalling in inhibitory regulation of feeding processes revealed in an echinoderm” (eLife, 2021):
Read-outs that look alike come from different tables or passages of the source. Square brackets hold non-standard residues; d marks the D form. Ends that are not written are not given here. * marks the point of attachment. pGlu = O=C1CC[C@@H](C(=O)O)N1; SO3H = O=S(=O)(O)*

Tests used:
[1] = test system: affinity-purified rabbit antibodies to ArSK/CCK1; assay: ELISA specificity test of affinity-purified antibodies to ArSK/CCK1; assay type: binding; settings: TEA fraction diluted 1:10; peptide 0.1 nmol (100 µl of 1 µM); mean of six replicates
Text: To generate antibodies to ArSK/CCK1, an N-terminally truncated peptide analog of ArSK/CCK1 with the addition of a reactive N-terminal lysine residue was synthesized (KY(SO3H)GHGLFW-NH2 , Peptide Protein Research Ltd, Fareham, UK). To generate antibodies to ArSK/CCKR, a peptide corresponding to the C-terminal 15 amino acids of ArSK/CCK-R with addition of an N-terminal reactive lysine residue was synthesized (KPSPTNYTNVSSDSSV, Peptide Protein Research Ltd, Fareham, UK). These peptides were conjugated to porcine thyroglobulin (Sigma-Aldrich, Gillingham, UK) as a carrier protein using 5% glutaraldehyde (Sigma-Aldrich, Gillingham, UK) in phosphate buffer (0.1 M; pH 7.2) and the conjugate was used for immunisation of a rabbit for ArSK/CCK1 (70-day protocol; Charles River Biologics, Romans, France) and a guinea pig for ArSK/CCKR (56-day protocol; Charles River Biologics, Romans, France). The antigens were emulsified in Freund’s complete adjuvant for primary immunisations (~100 nmol antigen peptide) and in Freund’s incomplete adjuvant for three booster immunisations (~50 nmol antigen peptide). The presence of antibodies to the antigen peptides in post-immunisation serum samples was assessed using an enzyme-linked immunosorbent assay (ELISA), in comparison with pre-immune serum (Figure 5—figure supplement 1a; Figure 6—figure supplement 1). Antibodies to the antigen peptides were purified from the final bleed antiserum by affinity purification using the AminoLink Plus Immobilization Kit (Thermo Fisher Scientific, Waltham, MA), with bound antibodies eluted using glycine elution buffer (6.3 ml of 100 mM glycine [VWR Chemicals, Leicestershire, UK] and 0.7 ml of Tris [1 M, pH = 7.0]) and […] (TEA) elution buffer (6.3 ml of TEA [Sigma-Aldrich, Gillingham, UK] and 0.7 ml of Tris [1 M, pH = 7.0]). Eluates were dialyzed and sodium azide (0.1%) was added for long-term storage of the affinity-purified antibodies at 4°C. The specificity of ArSK/CCK1 antibodies eluted with TEA, which were subsequently used for immunohistochemistry (see below), was assessed by ELISA by testing them at a concentration of 1:10 with the following synthetic peptides (100 µl at a concentration of 1 µM dissolved in carbonate/bicarbonate buffer [25 mM sodium carbonate, 25 mM sodium bicarbonate, pH = 9.8]): ArSK/CCK1, ArSK/CCK2, ArSK/CCK2(ns) and the A. rubens luqin-type peptide ArLQ (Figure 5—figure supplement 1b). The rabbit antiserum to ArSK/CCK1 has been assigned the RRID:AB_2877176 and the guinea pig antiserum to ArSK/CCKR has been assigned the RRID:AB_2891354.

ArSK/CCKR = target: T1, ArSK/CCKR (Asterias rubens, UniProt A0A8F2ZGB9); assay: Aequorin bioluminescence receptor assay in CHO-K1 cells (G5A) co-transfected with ArSK/CCKR and human Gα16; assay type: cell-based; settings: 10^–12 to 10^–4 M; at least three independent experiments in triplicate
T1 sequence (A0A8F2ZGB9 1-434): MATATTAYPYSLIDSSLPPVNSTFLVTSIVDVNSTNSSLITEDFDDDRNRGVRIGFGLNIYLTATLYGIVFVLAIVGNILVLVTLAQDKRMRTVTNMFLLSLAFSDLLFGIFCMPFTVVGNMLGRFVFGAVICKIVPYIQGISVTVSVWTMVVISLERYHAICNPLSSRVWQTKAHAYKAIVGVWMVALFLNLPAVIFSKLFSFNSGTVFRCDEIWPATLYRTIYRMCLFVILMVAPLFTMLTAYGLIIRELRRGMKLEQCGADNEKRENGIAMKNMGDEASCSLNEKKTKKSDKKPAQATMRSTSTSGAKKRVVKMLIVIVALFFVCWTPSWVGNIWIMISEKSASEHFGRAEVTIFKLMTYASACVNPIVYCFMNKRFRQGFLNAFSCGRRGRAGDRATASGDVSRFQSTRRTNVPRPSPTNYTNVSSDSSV
Text: To enable testing of ArSK/CCK1 and ArSK/CCK2 as candidate ligands for ArSK/CCKR, a full-length cDNA encoding ArSK/CCKR was synthesized by GenScript (Piscataway, NJ) and cloned into pcDNA 3.1+ vector (Invitrogen, Thermo Fisher Scientific, Waltham, MA). A partial Kozak translation initiation sequence (CACC) was introduced upstream to the start codon (ATG). CHO-K1 cells stably expressing the mitochondrial targeted calcium-sensitive bioluminescent reporter GFP-aequorin fusion protein (G5A) ([Baubet et al., 2000]) were used as a heterologous expression system for ArSK/CCKR. These cells have been used previously for neuropeptide receptor deorphanisation ([Bauknecht and Jékely, 2015]) and were generously supplied to us by Dr Gáspár Jékely (University of Exeter). The cell line was generated using the CHO-K1 cell line from Sigma-Aldrich (85051005; RRID: CVCL_0214), which is certified by the European Collection of Authenticated Cell Cultures (ECACC), and expression of the GFP-aequorin fusion protein (G5A) in the cell line was determined by functionality in displaying calcium-activated luminescence. […] Cells were cultured, co-transfected with the pcDNA 3.1+ vector containing the ArSK/CCKR cDNA sequence and plasmids encoding the promiscuous human G-protein Gα16. Then bioluminescence-based receptor assays were performed, as described previously for A. rubens luqin-type receptors ([Yañez-Guerra et al., 2018]).
[…] Concentration-response data were determined as a percentage of the highest response for each peptide (100% activation). EC50 values were calculated from concentration-response curves based on four to six independent transfections and averaging two to three replicates in each transfection using Prism 6.0 (RRID:SCR_002798; GraphPad software, La Jolla, CA). Cells transfected with an empty vector were used for control experiments.

[2] = test system: cardiac stomach preparations; settings: cited from earlier work
Text: (§1) Extra-oral feeding in starfish requires relaxation of muscle in the wall of the cardiac stomach and in intrinsic and extrinsic retractor strands to enable stomach eversion. Then when external digestion and ingestion of prey tissue is completed, contraction of the musculature enables cardiac stomach retraction ([Anderson, 1954]). Previous studies have identified neuropep ...

Asterias rubens [3] = settings: cited from earlier work
Text: as §1

Asterias rubens [4] = settings: injected in vivo; ref Tinoco et al., 2018; cited from earlier work
Text: The in vivo effect of SK/CCK-type neuropeptides in triggering cardiac stomach retraction is indicative of a role in physiological mechanisms that control termination of feeding behaviour in starfish. […] Accordingly, here we observed that starfish injected with SK/CCK-type neuropeptides took longer to enclose prey compared to control animals injected with water. Further ...

[5] = target: Asterias rubens SK/CCK-type receptor (ArSK/CCKR) (Asterias rubens)

Molecule: EEKTRFPKFMRW-NH2 [ArLQ, A. rubens luqin-type neuropeptide …-NH2, reference compound]
- ELISA reactivity (optical density) with antibodies to ArSK/CCK1 [1]: do not cross-react

Molecule: GGGVPHVFQSGGIF-NH2 [ArTK2, A. rubens tachykinin-like peptide ([…]-NH2), reference compound]
- activation of ArSK/CCKR (luminescence) (ArSK/CCKR): inactive

Molecule: NGFFYamide
- effect on cardiac stomach in vitro ([2]; ref Semmens et al., 2013): triggers contraction
- effect on everted cardiac stomach when injected in vivo (Asterias rubens [3]; ref Semmens et al., 2013): retraction of the everted stomach
- onset of feeding on prey (mussels) (Asterias rubens [4]): significant delay in the onset of feeding

Molecule: SGPYSFNSGLTF-NH2 [S2, SALMFamide neuropeptide S2 (…-NH2)]
- activation of ArSK/CCKR (luminescence) (ArSK/CCKR): inactive
- effect on cardiac stomach in vitro ([2]; ref Melarange et al., 1999): cause relaxation
- effect on cardiac stomach when injected in vivo (Asterias rubens [3]; ref Melarange et al., 1999): trigger cardiac stomach eversion

Molecule: asterotocin
- effect on cardiac stomach in vitro ([2]; ref Odekunle et al., 2019): cause relaxation
- effect on cardiac stomach when injected in vivo (Asterias rubens [3]; ref Odekunle et al., 2019): trigger cardiac stomach eversion

B1: ArSK/CCK2 (Asterias rubens sulfakinin/cholecystokinin-type neuropeptide 2), GGDDQY(SO3H)GFGLFF-NH2 (peptide)
peptide: GGDDQY(SO3H)GFGLFF-NH2
modifications: N-terminus assumed
SMILES: CC(C)C[C@H](NC(=O)CNC(=O)[C@H](Cc1ccccc1)NC(=O)CNC(=O)[C@H](Cc1ccc(OS(=O)(=O)O)cc1)NC(=O)[C@H](CCC(N)=O)NC(=O)[C@H](CC(=O)O)NC(=O)[C@H](CC(=O)O)NC(=O)CNC(=O)CN)C(=O)N[C@@H](Cc1ccccc1)C(=O)N[C@@H](Cc1ccccc1)C(N)=O
- EC50 of concentration-dependent luminescence (calcium, GFP-aequorin G5A) in CHO-K1 cells transfected with ArSK/CCKR and human Gα16 [5]: 0.12 nM

B2: ArSK/CCK1 (Asterias rubens sulfakinin/cholecystokinin-type neuropeptide 1), pQSKVDDY(SO3H)GHGLFW-NH2 (peptide)
peptide: [pGlu]SKVDDY(SO3H)GHGLFW-NH2
SMILES: CC(C)C[C@H](NC(=O)CNC(=O)[C@H](Cc1c[nH]cn1)NC(=O)CNC(=O)[C@H](Cc1ccc(OS(=O)(=O)O)cc1)NC(=O)[C@H](CC(=O)O)NC(=O)[C@H](CC(=O)O)NC(=O)[C@@H](NC(=O)[C@H](CCCCN)NC(=O)[C@H](CO)NC(=O)[C@@H]1CCC(=O)N1)C(C)C)C(=O)N[C@@H](Cc1ccccc1)C(=O)N[C@@H](Cc1c[nH]c2ccccc12)C(N)=O
- EC50 of concentration-dependent luminescence (calcium, GFP-aequorin G5A) in CHO-K1 cells transfected with ArSK/CCKR and human Gα16 [5]: 0.25 nM

B3: ArSK/CCK2(ns), non-sulphated form of ArSK/CCK2, …-NH2 (peptide)
peptide: GGDDQYGFGLFF-NH2
- EC50 of concentration-dependent luminescence (calcium, GFP-aequorin G5A) in CHO-K1 cells transfected with ArSK/CCKR and human Gα16 [5]: 48000 nM
